Patent publication US5298494A, “Monosaccharides having anti-proliferation and anti-inflammatory activity, compositions and uses thereof” (Greenwich Pharmaceuticals Incorporated, priority 1993, dated 1994)

Experiments:
GS-109-V-20 skin cells = experiment: Morphological examination of GS-109-V-20 cultures for drug-induced toxicity; type: cell-based, human
Experimental: (§1) After 3 days of culture, 1#uCi ^3 H-thymidine was added in 50 ul volume to each culture well of the microtiter plates. Eighteen hours later, each of the GS-109-V-20 cultures was examined morphologically for evidence of drug-induced toxicity such as cell rounding or granularity. The ^3 H-thymidine-pulsed cells were then precipitated and the amount of ^3 H-thymidine incorporation was counted on a liquid scintillation counter.

[1] = tested on: GS-109-V-20 human skin cell fibroblasts; experiment: Fibroblast assay: proliferation of GS-109-V-20 skin cell fibroblasts; type: cell-based; details: for effect on GS-109-V-20 fibroblast proliferation in words: text
Experimental: The effect of methyl 3-O-3'-(N',N'-dimethylamino-n-propyl)-6-deoxy-D-glucopyranoside on the proliferative capacity of human GS-109-V-20 skin fibroblasts was measured with the use of ^3 H-thymidine incorporation assay. Cultured skin cells were detached from the surface of tissue culture flasks mechanically with a Teflon scraper. The cells were washed, resuspended in incubation medium and the viabilities determined. These cells were then plated in triplicate at a density of 1×10^3 cells/0.1 ml/microtiter well. To these cells was added 0.1 ml incubation medium containing the methyl 3-O-3'-(N',N'-dimethylamino-n-propyl)-6-deoxy-D-glucopyranoside compound.
as §1
Methyl 3-O-3'-(N',N'-dimethylamino-n-propyl)-6-deoxy-D-glucopyranoside was suspended directly into the medium by extensive sonication, without being filter-sterilized. A range of doses of this compound was used to measure effects of this compound upon GS-109-V-20 cell proliferation. The following doses were used:
The human skin cell fibroblast line, GS-109-V-20, was obtained from the American Type Culture-Collection. […] These cells were selected for use because they are considered to exist in an initiated state, as opposed to being normal or transformed, and have a more extensive population doubling time and survival period in culture than do normal fibroblasts. In this regard, they would more closely reflect the biological characteristics of psoriatic or rheumatoid synovial fibroblasts which also proliferate more extensively than do normal fibroblasts, but not as extensively as immortalized transformed tumor cells.
The number of GS-109-V-20 cells was expanded for use in the described assays by culture in 25 cm^2 flasks at 37° C. in an atmosphere of 5% CO2 in air. At approximately 4-5 day intervals, or when confluence was reached, the cells were passaged. This was accomplished by detaching the cells by trypsinization, washing and reseeding the cells at a lower density into fresh tissue culture flasks.

COC1O[C@H](C)[C@@H](O)[C@H](OCCCN(C)C)[C@H]1O (stereo partly drawn) [V, Methyl 3-O-3'-(N',N'-dimethylamino-n-propyl)-6-deoxy-D-glucopyranoside]
cytotoxicity in GS-109-V-20 cultures, in words (GS-109-V-20 skin cells): without evidence of cytotoxicity | ^3 H-Thymidine uptake by GS-109-V-20 skin cells ([1]; 0.001 ug/ml): 2,557 ± 258 cpm | ^3 H-Thymidine uptake by GS-109-V-20 skin cells ([1]; 0.01 ug/ml): 976 ± 469 cpm | ^3 H-Thymidine uptake by GS-109-V-20 skin cells ([1]; 0.1 ug/ml): 1,052 ± 177 cpm | ^3 H-Thymidine uptake by GS-109-V-20 skin cells ([1]; 1 ug/ml): 1,237 ± 301 cpm | ^3 H-Thymidine uptake by GS-109-V-20 skin cells ([1]; 2.5 ug/ml): 1,044 ± 106 cpm | ^3 H-Thymidine uptake by GS-109-V-20 skin cells ([1]; 10 ug/ml): 900 ± 189 cpm | ^3 H-Thymidine uptake by GS-109-V-20 skin cells ([1]; 25 ug/ml): 946 ± 41 cpm | ^3 H-Thymidine uptake by GS-109-V-20 skin cells ([1]; 100 ug/ml): 647 ± 541 cpm | inhibition at 0.001 µg/mL ([1]; Homo sapiens, Fibroblast, 0.001 ug/ml, read-out: % effect on GS-109-V-20 proliferation): 12% | inhibition at 0.01 µg/mL ([1]; Homo sapiens, Fibroblast, 0.01 ug/ml, read-out: % effect on GS-109-V-20 proliferation): 66% | inhibition at 0.1 µg/mL ([1]; Homo sapiens, Fibroblast, 0.1 ug/ml, read-out: % effect on GS-109-V-20 proliferation): 64% | inhibition at 1 µg/mL ([1]; Homo sapiens, Fibroblast, 1 ug/ml, read-out: % effect on GS-109-V-20 proliferation): 58% | inhibition at 2.5 µg/mL ([1]; Homo sapiens, Fibroblast, 2.5 ug/ml, read-out: % effect on GS-109-V-20 proliferation): 64% | inhibition at 10 µg/mL ([1]; Homo sapiens, Fibroblast, 10 ug/ml, read-out: % effect on GS-109-V-20 proliferation): 69% | inhibition at 25 µg/mL ([1]; Homo sapiens, Fibroblast, 25 ug/ml, read-out: % effect on GS-109-V-20 proliferation): 68% | inhibition at 100 µg/mL ([1]; Homo sapiens, Fibroblast, 100 ug/ml, read-out: % effect on GS-109-V-20 proliferation): 78% | effect on GS-109-V-20 fibroblast proliferation in words ([1]; listed as Methyl 3-O-3'-(N',N'-dimethylamino-n-propyl)-6-deoxy-D-glucopyranoside): inhibitory effects on the proliferation of GS-109-V-20 human skin cell fibroblasts | effect on GS-109-V-20 fibroblast proliferation in words ([1]; listed as methyl 3-O-3'-(N',N'-dimethylamino-n-propyl)-6-deoxy-D-glucopyranoside): A significant inhibitory effect was observed in a non-dose-dependent manner
